Measured values published in publication doi:10.1101/2025.08.18.25333496, “A Phase 0 Window of Opportunity Trial of LB100, a Protein Phosphatase 2A Inhibitor, in Patients with Recurrent Gliomas” (medRxiv, 2025).
Like-named read-outs stand apart in the source and are kept apart here.

How the values were obtained:
clinical [1] = conditions: human, in vivo
Description: (§1) In this current trial, a single dose of LB100 was infused over two hours (+/− 15 minutes) starting two to four hours before surgery.
(§2) Blood and plasma samples for PK measurements were also performed on all participants. Samples were collected at the following time points: 1) Pre-dose; 2) End of infusion (2 hours post-start); 3) 30 minutes post LB100 infusion completion; 4) 1 hour post LB-100 infusion completion; 5) 2 hours post LB100 infusion completion; 6) 4 hours post LB100 infusion completion; 7) 8 hours post LB100 infusion completion.
(§3) LB100 concentration in clinical PK samples (plasma and tumor tissue), was quantified using a validated and robust LC-MS/MS assay developed at the NCI that used LB-105 as an internal standard. This analysis was performed blinded to tumor type. Plasma samples were pre-treated with 50 mM NaOH and tissue samples were homogenized in acetonitrile at a concentration of 100 mg/mL Briefly, samples were mixed with aqueous 10 mM triethylamine (TEA) containing internal standard followed by protein precipitation with 0.5% TEA in acetonitrile. Samples were processed alongside calibration and quality control (QC) standards, ranging from 2–1000 ng/mL (~7.5–3700 nM) and 3–10,000 pg/mg (~1.2–3700 nM) for plasma and brain tissue, respectively. […] The analyte and internal standard were chromatographically separated using a Waters Acquity UPLC BEH C18 (1.7-μm, 2.1×50mm) on a Waters Acuity UPLC system (Waters Corp., Milford, MA). A gradient mobile phase consisting of 5 mM ammonium bicarbonate (aq) and acetronitrile was flowed at a rate of 0.5 to 1 mL/min; the injection volume was 5 uL. After chromatographic separation, the compounds were eluted and detected using a AbSciex QTrap 5500 tandem mass spectrometer in positive ion electrospray mode; MRM transitions were m/z 269.1 → 101.0 and 283.2 → 115.1 for LB-100 and LB-105, respectively.
(§4) Plasma PK was analyzed via a non-compartmental approach using Phoenix WinNonlin v8.3 (Certara Corp, Cary, NC) that was validated per FDA 21CFR Part 11 Regulations. The maximum plasma concentration (Cmax) and the time of Cmax (Tmax) were reported as observed values. A rate constant of the terminal phase, λz, was calculated from the concentration-time curve using uniformly weighted least-squares as the estimation procedure and acceptance criteria of i) r^2 > 0, ii) includes >3-time points. […] Estimated pharmacokinetic parameters included half-life (t1/2; inverse of λz), volume of distribution (Vd; dose divided by product of λz and AUCINF), and clearance (CL; dose divided by AUCINF). Drug concentrations in brain tissue samples were reported and % brain penetrance was approximated via the ratio of brain tissue drug concentration to plasma drug concentrations from matched timepoints post-tissue collection.

[2] = biological target: protein phosphatase 2A (PP2A); conditions: cited from earlier work
clinical [3] = assay: clinical; parameters: species or system human; conditions: in vivo
Description: Glioma tissue sampling to detect and quantify LB100 was performed post-dose in each patient, with resection time points from the end of the LB100 infusion recorded. After ensuring adequate diagnostic tissue, remaining tissue was used for PK analysis. Briefly, removed tissues were rinsed with saline immediately (to remove LB100-containing blood and avoid falsely elevated LB100 measurements), then divided, flash-frozen, and stored at −80°C for future batch analysis.
This analysis was performed blinded to tumor type.

[4] = parameters: method as in Lixte Biotechnology, Investigators Brochure, unpublished; conditions: ref Lixte Biotechnology, Investigators Brochure, unpublished, cited from earlier work
[5] = parameters: method as in PMID 28039265; conditions: dose level above the established safe dose; cited from earlier work
[6] = in vivo
Description: After LB100 infusion and craniotomy all patients were evaluated in person 1–3 days following surgery and followed for at least 30 days after infusion of LB100 for toxicities and adverse events (AEs). All adverse events, including clinically significant abnormal findings on laboratory evaluations, regardless of severity, were followed until return to baseline or stabilization of event. Adverse events were documented from the first study intervention (study day 1) through the final safety visit (study day 30). Beyond 30 days only adverse events which were serious and related to the study intervention were recorded. The descriptions and grading scales found in the revised NCI Common Terminology Criteria for Adverse Events (CTCAE) version 5.0 were utilized for AE reporting.
During the first post-operative week after infusion with LB100, an EKG, renal function tests and liver function tests were performed. Two to three weeks following discharge from the hospital, all patients were given a physical exam and additional blood testing. At approximately 30 days post-craniotomy patients were questioned to determine whether any new AEs had occurred, and any ongoing AEs were followed up on. Prior to removal from the study, at approximately 30 days following drug infusion, all subjects completed a final safety evaluation.

[7] = human, in vivo
Description: as §1, §2, §3, §4

PP2A = system: PP2A; parameters: method as in Lixte Biotechnology, Investigators Brochure, unpublished; conditions: mice, brain region with intact BBB; ref Lixte Biotechnology, Investigators Brochure, unpublished; cited from earlier work
[8] = one-time administration equivalent to human maximum tolerated dose

Structure (SMILES): CN1CCN(C(=O)C2C(C(=O)O)[C@H]3CC[C@@H]2O3)CC1 (some centres unmarked) [LB100]
- Vd (clinical [1]): 21.7 L
- clearance (clinical [1]): 195 mL/min
- AUC(0-inf) (clinical [1]; AUCinf): 414 ng·h/mL
- Cmax (clinical [1]): 146 ng/mL
- Cmax (clinical [1]; range): 95 to 179 ng/mL
- half-life (clinical [1]; T1/2): 1.2 h
- Tmax (clinical [1]; TMAX): 2.1 h
- Tmax (clinical [1]; Tmax, range): 2.07 to 2.63 h
- AUC(0-inf) (clinical [1]; plasma drug exposure (AUCINF), range): 325 to 468 ng·h/mL
- half-life (clinical [1]; plasma half-life (T1/2), range): 1.09 to 1.46 h
- IC50 ([2]; in glial cell lines, read-out: IC50 of PP2A): 200 to 400 nM
- IC50 ([2]; previously established, read-out: minimum IC50 targeting protein phosphatase 2A): 200 nM
- % Brain Pen (ratio of brain:plasma concentrations) (clinical [3]; human): 0.31% (159%)
- Kp (clinical [3]; human): 0.0031
- concentration at 5.68 h (clinical [3]; human): 0.51 ng/g
- concentration of LB100 in tumor tissue, range (clinical [3]; human): 0 to 0.67 nM
- percent of drug penetration into the brain, range (clinical [3]; human): 0% to 1.04%
- difference in drug levels between contrast and non-contrast regions of tumor (clinical [3]): no significant difference in drug levels
- mean Cmax in plasma ([4]; animal studies): 1110~3664 ng/ml
- mean Cmax in the brain ([4]; animal studies): 17.4~43.5 ng/kg
- animals with LB100 detected in implanted tumor [4, 8]: 1 of 3
- animals with LB100 detected in normal brain and liver [4, 8]: 2 of 3
- patients with grade 3 increases in creatinine clearance [5]: 2 of 4
- AEs related to LB100 ([6]; human, 30 days): No AEs were thought to be related to LB100
- total number of AEs ([6]; human, 30 days): 30
- AEs rated as serious (grade 3 or 4) [6]: Four
- T1/2 [7]: 1.27 (13%) hr
- plasma concentration of LB100 at the time of biopsy, range [7]: 30.81 to 132.26 nM
- PP2A enzymatic activity in the lateral habenula (PP2A): significantly decrease PP2A enzymatic activity
